Patent US12043600B2, “Microbiocidal compounds” (SYNGENTA CROP PROTECTION AG, priority 2018, dated 2024)

Columns and labels:
[1] = system: Botryotinia fuckeliana (Botrytis cinerea); experiment: Botryotinia fuckeliana (Botrytis cinerea)/Liquid Culture (Gray Mould); type: cell-based; details: liquid culture, compared to untreated control
Procedure: Conidia of the fungus from cryogenic storage are directly mixed into nutrient broth (Vogels broth). After placing a (DMSO) solution of test compound into a microtiter plate (96-well format), the nutrient broth containing the fungal spores is added.

[2] = system: Glomerella lagenarium (Colletotrichum lagenarium); experiment: Glomerella lagenarium (Colletotrichum lagenarium)/Liquid Culture (Anthracnose); type: cell-based; details: Colletotrichum orbiculare, liquid culture, compared to untreated control
[3] = system: Blumeria graminis f. sp. tritici (Erysiphe graminis f. sp. tritici); experiment: Blumeria graminis f. sp. tritici/Wheat/Leaf Disc Preventative (Powdery Mildew on Wheat); type: in vivo; details: foliar, wheat leaf disc preventative, compared to untreated control
Procedure, shortened: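 Wheat cv. Kanzler leaf segments on agar sprayed with formulated compound, inoculated with powdery mildew 1 day later and held at 20° C, 60% rh (24 h dark, then 12 h light/12 h dark). Percent disease control versus untreated scored 6-8 days after application.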

[4] = system: Phaeosphaeria nodorum (Septoria nodorum); experiment: Phaeosphaeria nodorum (Septoria nodorum)/Wheat/Leaf Disc Preventative (Glume Blotch); type: in vivo; details: Parastagonospora nodorum, foliar, wheat leaf disc preventative, compared to untreated control
Procedure, shortened: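 Wheat cv. Kanzler leaf discs on agar were sprayed with formulated compound diluted in water and inoculated with P. nodorum spores 2 days later. Discs kept at 20 °C, 75% rh, 12 h light/dark; percent disease control versus untreated scored 5–7 days after application.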

[5] = system: Monographella nivalis (Microdochium nivale); experiment: Monographella nivalis (Microdochium nivale)/Liquid Culture (Foot Rot Cereals); type: cell-based; details: liquid culture, compared to untreated control
Procedure, shortened: (§1)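 Test compound dissolved in DMSO is dispensed first; nutrient broth (potato dextrose) carrying conidia thawed from cryogenic storage follows.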

[6] = system: Mycosphaerella arachidis (Cercospora arachidicola); experiment: Mycosphaerella arachidis (Cercospora arachidicola)/Liquid Culture (Early Leaf Spot); type: cell-based; details: liquid culture, compared to untreated control
Procedure, shortened: as §1

[7] = system: Phakopsora pachyrhizi; experiment: Phakopsora pachyrhizi/Soybean/Preventative (Soybean Rust); type: in vivo; details: 288 h, Phakopsora pachyrhizi (Soybean rust); for pest or weed control at 200 ppm: read-out: control (%)
[8] = system: Phytophthora infestans; experiment: whole plant or invertebrate; type: in vivo; details: in Solanum lycopersicum, foliar, read-out: control of Phytophthora infestans
[9] = system: Plasmopara viticola; experiment: whole plant or invertebrate; type: in vivo; details: foliar, read-out: control of Plasmopara viticola
[10] = system: Magnaporthe grisea (Pyricularia oryzae); experiment: whole plant or invertebrate; type: in vivo; details: foliar, read-out: control of Magnaporthe grisea
[11] = system: Thanatephorus cucumeris (Rhizoctonia solani); experiment: Thanatephorus cucumeris (Rhizoctonia solani)/Liquid Culture (Foot Rot, Damping-Off); type: cell-based; details: liquid culture, compared to untreated control
Procedure: Mycelia fragments of a newly grown liquid culture of the fungus are directly mixed into nutrient broth (PDB potato dextrose broth). After placing a (DMSO) solution of the test compounds into a microtiter plate (96-well format), the nutrient broth containing the fungal material is added.

[12] = system: Mycosphaerella graminicola (Septoria tritici); experiment: Mycosphaerella graminicola (Septoria tritici)/Liquid Culture (Septoria Blotch); type: cell-based; details: Zymoseptoria tritici; 20 ppm; liquid culture; compared to untreated control
Procedure, shortened: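 Conidia from cryogenic storage mixed into potato dextrose broth and added to microtiter wells already holding DMSO solutions of test compound. Activity expressed as percentage disease control.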

[13] = Photostability assay (Atlas Suntest); type: physicochemical; details: Suntest 750 W/m^2, spotted on microscope slides
Procedure: The testing method to measure the photostability data of each compound in table is D1 is as specifically described below. The objective of the photostability assay was to determine the stability of the individual test compounds in a strictly controlled and reproducible environment allowing a comparison of their photostability.
Method: Compounds were dissolved in methanol (HPLC grade) to give 1 g/L stock solutions. Compound stock solution (2 μl) was spotted onto microscope slides in a 3D printed holder and put into the Atlas Suntest. The spectral output power of the Suntest was set to 750 W/m^2, which is considered typical of the daily maximum (noon) irradiance level on a very bright British Summer day. At specific time points slides were removed from the Suntest and placed in 4D vials. Wash solvent made up of 50:40:10 H2O:MeCN:THF (1 mL) is then added to the vials and whirlimixed. The resulting solution is then subsampled to an HPLC vial to be analysed. A Waters UPLC system with Photodiode Array was used with a Waters reverse phase column (BEH C18, 100×2.1 mm×1.7 μm) and acetonitrile (HPLC grade) acidified water (0.2% formic acid) mobile phase at a flow rate of 0.6 mL/min. Peak detection was at the optimum wavelength and peak areas were used for quantification
Initial and subsequent measurements of peak area attributable to the test compound were used to provide a % parent remaining at 3 hours.

[14] = system: Puccinia recondita f. sp. tritici; experiment: Puccinia recondita f. sp. tritici/Wheat/Leaf Disc Curative (Brown Rust); type: in vivo; details: foliar, wheat leaf disc curative, compared to untreated control
Procedure, shortened: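 Curative leaf-disc test on wheat cv. Kanzler segments on agar, spore-inoculated and kept dark at 19° C, 75% rh; formulated compound in water applied 1 day after inoculation. Incubated at 19° C, 75% rh, 12 h light/12 h dark; percent disease control versus untreated scored 6-8 days after application.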

[15] = system: Puccinia recondita f. sp. tritici; experiment: Puccinia recondita f. sp. tritici/Wheat/Leaf Disc Preventative (Brown Rust); type: in vivo; details: foliar, 200 ppm, wheat leaf disc preventative, compared to untreated control, read-out: control of Puccinia recondita f. sp. tritici
[16] = system: Pyrenophora teres; experiment: Pyrenophora teres/Barley/Leaf Disc Preventative (Net Blotch); type: in vivo; details: foliar, 200 ppm, barley leaf disc preventative, compared to untreated control, read-out: control of Pyrenophora teres
Procedure, shortened: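 Formulated compound, diluted in water, sprayed onto barley cv. Hasso leaf segments on agar; spore suspension inoculation followed 2 days after application. Results expressed as percentage disease control.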

[17] = system: Alternaria solani; experiment: Alternaria solani/Tomato/Leaf Disc (Early Blight); type: in vivo; details: foliar, tomato leaf disc, compared to untreated control
Procedure, shortened: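 Tomato cv. Baby leaf disks on agar were sprayed with diluted formulated compound and inoculated with spores 2 days later. Incubation at 23° C./21° C. day/night, 80% rh, 12/12 h light; percent disease control versus untreated scored 5-7 days after application.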

Row | SMILES | inhibition of growth at 20 ppm [1] | inhibition of growth at 20 ppm [2] | pest or weed control at 200 ppm [3] | pest or weed control at 200 ppm [4] | inhibition of growth at 20 ppm [5] | inhibition of growth at 20 ppm [6] | pest or weed control at 0.6 ppm [7] | pest or weed control at 2 ppm [7] | pest or weed control at 6 ppm [7] | pest or weed control at 20 ppm [7] | pest or weed control at 60 ppm [7] | pest or weed control at 200 ppm [7] | pest or weed control at 200 ppm [8] | pest or weed control at 200 ppm [9] | pest or weed control at 200 ppm [10] | inhibition of growth at 20 ppm [11] | inhibition of growth at 20 ppm [12] | % Parent Remaining @ 3 hrs [13] | melting point | pest or weed control at 200 ppm [16] | further results
1 | CCCc1ccn(-c2ccc(C)c(O/C(=C\OC)C(=O)OC)c2)n1 [Compound E-40, methyl (Z)-3-methoxy-2-[2-methyl-5-(3-propylpyrazol-1-yl)phenoxy]prop-2-enoate] | ≥ 80% | ≥ 80% | ≥ 80% | ≥ 80% | ≥ 80% | ≥ 80% | 10% | 35% | 90% | 95% | 100% | 100% | ≥ 80% | ≥ 80% | ≥ 80% | ≥ 80% | ≥ 80% | 65% | 91 to 94 °C |  | 
2 | CO/C=C(\Oc1cc(-n2ccc(C(C)C)n2)c(F)cc1C)C(=O)OC [Compound E-41, methyl (Z)-2-[4-fluoro-5-(3-isopropylpyrazol-1-yl)-2-methyl-phenoxy]-3-methoxy-prop-2-enoate] |  | ≥ 80% | ≥ 80% |  | ≥ 80% | ≥ 80% |  |  |  |  |  |  |  | ≥ 80% | ≥ 80% | ≥ 80% | ≥ 80% | 28% |  |  | pest or weed control at 200 ppm [14]: ≥ 80%; pest or weed control at 200 ppm [15]: ≥ 80%
3 | CCC(C)c1ccn(-c2ccc(C)c(O/C(=C\OC)C(=O)OC)c2)n1 (stereo not drawn) [Compound E-44, methyl (Z)-3-methoxy-2-[2-methyl-5-(3-sec-butylpyrazol-1-yl)phenoxy]prop-2-enoate] | ≥ 80% | ≥ 80% | ≥ 80% | ≥ 80% | ≥ 80% | ≥ 80% |  |  |  |  |  |  | ≥ 80% | ≥ 80% | ≥ 80% | ≥ 80% | ≥ 80% | 69% | 110 to 113 °C | ≥ 80% | 
4 | CO/C=C(\Oc1cc(-n2ccc(OC(C)C)n2)ccc1C)C(=O)OC [Compound E-70, methyl (Z)-2-[5-(3-isopropoxypyrazol-1-yl)-2-methyl-phenoxy]-3-methoxy-prop-2-enoate] |  | ≥ 80% | ≥ 80% | ≥ 80% | ≥ 80% | ≥ 80% |  |  |  |  |  |  | ≥ 80% | ≥ 80% | ≥ 80% |  | ≥ 80% | 25% | 94 to 97 °C | ≥ 80% | pest or weed control at 200 ppm [17]: ≥ 80%
5 | CO/C=C(\Oc1cc(-n2ccc(C3CCC3)n2)ccc1C)C(=O)OC [Compound E-88, methyl (Z)-2-[5-(3-cyclobutylpyrazol-1-yl)-2-methyl-phenoxy]-3-methoxy-prop-2-enoate] | ≥ 80% | ≥ 80% | ≥ 80% | ≥ 80% | ≥ 80% | ≥ 80% |  |  |  |  |  |  | ≥ 80% | ≥ 80% | ≥ 80% |  | ≥ 80% | 34% | 91 to 94 °C |  | pest or weed control at 200 ppm [17]: ≥ 80%
6 | CO/C=C(\Oc1cc(-n2ccc(CC(C)C)n2)ccc1C)C(=O)OC [Compound E-90, methyl (Z)-2-[5-(3-isobutylpyrazol-1-yl)-2-methyl-phenoxy]-3-methoxy-prop-2-enoate] | ≥ 80% | ≥ 80% | ≥ 80% | ≥ 80% | ≥ 80% | ≥ 80% |  |  |  |  |  |  | ≥ 80% | ≥ 80% | ≥ 80% |  | ≥ 80% | 42% | 76 to 80 °C |  | 
7 | CO/C=C(\Oc1cc(-n2ccc(C3CC3)n2)ccc1C)C(=O)OC [Compound E-101, methyl (Z)-2-[5-(3-cyclopropylpyrazol-1-yl)-2-methyl-phenoxy]-3-methoxy-prop-2-enoate] | ≥ 80% | ≥ 80% | ≥ 80% | ≥ 80% | ≥ 80% | ≥ 80% |  |  |  |  |  |  | ≥ 80% | ≥ 80% |  | ≥ 80% | ≥ 80% | 38% | 115 to 118 °C |  | 
8 | CO/C=C(\Oc1cc(-n2ccc(C(F)(F)F)n2)ccc1C)C(=O)OC [Compound E-105, methyl (Z)-3-methoxy-2-[2-methyl-5-[3-(trifluoromethyl)pyrazol-1-yl]phenoxy]prop-2-enoate] | ≥ 80% | ≥ 80% | ≥ 80% | ≥ 80% | ≥ 80% | ≥ 80% | 0% | 0% | 20% | 95% | 100% | 100% |  | ≥ 80% | ≥ 80% |  | ≥ 80% | 74% | 154 to 156 °C | ≥ 80% | pest or weed control at 200 ppm [17]: ≥ 80%
9 | CO/C=C(\Oc1cccc(-n2cccc2)c1)C(=O)OC [Compound X-1, reference compound] |  |  |  |  |  |  | 0% | 0% | 0% | 10% | 10% | 45% |  |  |  |  |  | 9% |  |  | 
